For orientation: pIC50 means the IC50 on a negative log10 scale, so that one unit is a factor of ten. By IC50 is commonly meant the point on the concentration scale where inhibition reaches its midpoint.

pIC50: −log10 of the molar value. Activity calls are given as the source filed them. The rule behind the calls is not given here. Some results are limits rather than exact numbers.

The assay has as its system HEK-293T NF-kB luciferase reporter counterscreen, luminescence. Briefly: inhibitors of HEK-293T NF-kB luciferase – HEK-293T cells, luminescence, counter-screen for T-cell antigen receptor NF-kB inhibitors, dose response (AID 489041).
With `CCc1ccc(S(=O)(=O)/N=C2\C=C(Nc3ccc(O)cc3)C(=O)c3ccccc32)cc1`, the pIC50 is 5.96. On to `Cc1ccc(-c2cc3c(N=O)c4ccccc4c-3n[nH]2)cc1`, for which the pIC50 is 6.06. As for `CCCN1C=CC(=C2C(=O)c3ccccc3C2=O)C=C1`, the negative logarithm of the IC50 (pIC50) was 5.96. On the same count and under the same terms, then `CCN(CC)c1ccc2nc3ccccc3[n+](CC)c2c1`, with 5.70. As to `COc1cc(C2C(C#N)=C(N)Oc3cc4c(cc32)OCO4)cc(OC)c1OC` (stereo not given), the pIC50 was 5.41. Regarding `CCn1c2ccccc2c2cc(Nc3cc(C)nc4ncnn34)ccc21`, the pIC50 is 5.87.

Turning to `CCOC(=O)N/N=C/c1c(C)nn(-c2cccc(C(F)(F)F)c2)c1Cl`, the pIC50 was 5.05.

For `COC(=O)c1ccc(C)c(NS(=O)(=O)c2ccc3c(c2)OCCO3)c1`, the IC50 is 20.1 µM (inactive). The same measure, in the same setting: then `COc1cc2c(c(OC)c1OC)-c1ccc(O)cc1[C@@H](NC(C)=O)CC2`, with > 80 µM (inactive). `C=C1C(=O)O[C@H]2C[C@@H](C)[C@@H]3C=CC(=O)[C@@]3(C)C[C@H]12`: the pIC50 was 5.23. In the case of `CCOc1cc(C#N)c(NC(=O)c2cccnc2)cc1OCC`, the IC50 is 37.7 µM (inactive). In the case of `C#CC[N+](C)(C)CCCCCCCCCCCC`, the IC50 is 25.1 µM (inactive). In the case of `CCN(CC)c1ccc(-c2nn3c(-c4ccccc4OC)nnc3s2)cc1`, the pIC50 was 5.73. As to `C/C=C(\C)C(=O)N[C@@H](c1ccccc1)[C@@H](O)C(=O)O[C@H]1C[C@@]2(O)[C@@H](OC(=O)c3ccccc3)C3[C@](C)(C(=O)[C@H](O)C(=C1C)C2(C)C)[C@@H](O)C[C@H]1OC[C@@]31OC(C)=O` (stereo not given in full), the IC50 was > 80 µM (inactive). Still for that read-out and setting: then `CCCC(=O)NC(c1ccccc1Cl)c1ccc2cccnc2c1O` (stereo not given), with > 80 µM (inactive); and `COc1ccc(C2=NOC(C(=O)NCc3cccs3)C2)cc1OC` (stereo not given), with 35.2 µM (inactive). `C(=N\Nc1nc2ccccc2s1)/c1ccccn1`: the pIC50 was 5.84.

Take `CN(C)c1ccc2c(c1)OC(N)=C(C#N)C2c1cccc(F)c1` (stereo not given): the pIC50 was 5.84. With `CC(=O)c1ccc(Oc2cc(C)nc(-n3nc(C)cc3C)n2)cc1`, the pIC50 is 4.84. Same read-out and setting: then `O=C(O)c1ccc(N/N=C/c2ccc3c(c2)OCO3)cc1`, with 5.76.

As for `COc1ccc(Cn2c(SCc3ccc(C)cc3)nc3cc(OC)c(OC)cc3c2=N)cc1Cl`, the IC50 is > 80 µM (inactive). Regarding `Cc1ccc(S(=O)(=O)NCc2ccncc2)c(C)c1C`, the pIC50 is 6.52. Turning to `Cc1c(C(=O)OCC(C)C)[nH]c2c1C(=O)CC(c1cccs1)C2` (stereo not given), the pIC50 is 6.39. Take `CCCC(=O)NC(c1ccc(OC)cc1)c1ccc2cccnc2c1O` (stereo not given): the IC50 was > 80 µM (inactive).

In the case of `C[C@@H]1O[C@@H](O[C@H]2C[C@@H](O)[C@]3(CO)[C@H]4[C@H](O)C[C@]5(C)[C@@H](C6COC(=O)C6)CC[C@]5(O)[C@@H]4CC[C@]3(O)C2)[C@H](O)[C@H](O)[C@H]1O` (stereo not given in full), the pIC50 is 6.06. As for `O=C1CC(c2cccc(Br)c2)c2cc3c(cc2N1)CCC3` (stereo not given), the pIC50 is 5.19. Still for that read-out and setting: the same measure for `CSc1ccc(COC(=O)c2cc([N+](=O)[O-])ccc2N2CCOCC2)cc1`: 5.77. With `COc1cccc2sc(Nc3nnc(-c4ccccc4Cl)o3)nc12`, the IC50 was > 80 µM (inactive). Regarding `COc1ccc(OC)c2c1C(=O)C(Cl)=C(Cl)C2=O`, the pIC50 was 5.40. Regarding `O=C(/C=C/c1cccc([N+](=O)[O-])c1)n1cnc2ccccc21`, the IC50 is 51.3 µM (inactive). As to `Cc1ccc(-c2cc(-c3ccc(C)cc3)[n+](-c3ccccc3)c(-c3ccc(C)cc3)c2)cc1`, the pIC50 was 5.96. `Cc1ccc(C(=O)N/N=C/c2ccc([N+](=O)[O-])s2)cc1`: the pIC50 is 5.36. For the molecule `CSc1nc(N(C)NC(=O)c2cccc(C)c2)c2ccccc2n1`, the negative-log IC50 (pIC50) was 5.38. Still for that read-out and setting: then `Cc1ccccc1NC1=C/C(=N\S(=O)(=O)c2cccs2)c2ccccc2C1=O`, with 6.39. On to `O=Cc1cc2ccccc2nc1SCc1ccc(Cl)c(Cl)c1`, for which the pIC50 is 5.26. Still for that read-out and setting: the same measure for `O=C(Nc1ccc(Cl)c(S(=O)(=O)N2CCOCC2)c1)c1ccc(OCC2CCCO2)cc1` (stereo not given): 5.50; for `COc1ccc(NC(=O)/C(Cl)=C(/Cl)S(=O)Cc2ccc(Cl)cc2)cn1` (stereo not given): 5.12. `CCOC(=O)c1[nH]c(C)c(C(=O)OCC(=O)NC(C)c2ccc(F)cc2)c1C` (stereo not given): the IC50 is > 80 µM (inactive).

With `COC(=O)C[C@]1(C(=O)OC)CN(C#N)N(c2ccc(Cl)cc2)C12c1ccccc1-c1ccccc12`, the IC50 was 20.1 µM (inactive).

On to `Cc1ccc(Nc2nc(-c3c(C)nc4ccccn34)cs2)cc1`, for which the pIC50 is 6.23. Consider `O=[N+]([O-])c1ccc(Sc2ccc(Cl)c(Cl)c2)nc1`, for which the IC50 is 64 µM (inactive). Consider `Cc1cc2c(cc1C)C(c1ccccc1OC(C)C)CC(=O)N2` (stereo not given), for which the negative logarithm of the IC50 (pIC50) is 4.88.

On to `CCN(CC)c1ccc(/C=N/NC(=O)c2nnn(-c3nonc3N)c2C(C)C)c(O)c1`, for which the pIC50 was 6.66. With `COc1ccc(-[n+]2c(-c3ccccc3)cc(-c3ccc(C)cc3)cc2-c2ccccc2)cc1`, the pIC50 is 5.44.

Regarding `COc1ccc(-c2c(C#N)c(N)nc3c2CCc2ccccc2-3)cc1OC`, the pIC50 was 5.08. The same measure, in the same setting: the same measure for `CCCCCN1C=CC(=C2C(=O)c3ccccc3C2=O)C=C1`: 5.72; for `CC(=O)N(C)C1=C(N2CCOCC2)C(=O)c2ccccc2C1=O`: 5.28; for `CC1=NNC(=O)/C1=C\c1cn(-c2ccccc2)nc1-c1ccc(Cl)cc1`: 5.11.

Consider `COc1cc(NS(C)(=O)=O)ccc1Nc1c2ccccc2nc2ccccc12`, for which the IC50 is > 80 µM (inactive). As for `O=C(NCCc1ccccc1)c1ccc2c(c1)OCCO2`, the pIC50 was 5.89. In the case of `O=[N+]([O-])c1ccc(-c2nc(C(Cl)Cl)c3ccccc3n2)cc1`, the IC50 is 54.5 µM (inactive).

For `CCCCCCCCC[n+]1cccc2c3ccccc3ccc21`, the pIC50 was 6.26. The same measure, in the same setting: the same measure for `O=C(N/N=C/c1c(O)ccc2ccccc12)c1ccc(Br)o1`: 6.26; for `Cc1ccc2c(c1)COc1c3ccc(C(=O)O)cc3nn1-2`: 4.89. Same read-out and setting: then `Cc1cc(-c2ccc(S(=O)(=O)N(C)c3ccc(C)c(C)c3)s2)on1`, with 5.10; and `CC(C)(C)c1ccc(C(=O)O/N=C(\N)c2ccccc2)cc1`, with 6.51. With `COc1ccc(OC)c(COC(=O)c2cc([N+](=O)[O-])ccc2N2CCOCC2)c1`, the IC50 was 52.4 µM (inactive). Same read-out and setting: the same measure for `Cc1ccc(O)c(NC(=O)c2cc(-c3ccco3)on2)c1`: > 80 µM (inactive). For the molecule `Cc1ccc(NS(=O)(=O)c2ccc(-c3cnc(C4CC4)o3)cc2)c(C)c1`, the pIC50 was 5.83. Turning to `CC(=O)O[C@@]12CO[C@@H]1C[C@@H](O)[C@@]1(C)C(=O)[C@H](O)C3=C(C)[C@@H](OC(=O)[C@H](O)[C@@H](NC(=O)c4ccccc4)c4ccccc4)C[C@@](O)([C@@H](OC(=O)c4ccccc4)C12)C3(C)C` (stereo not given in full), the IC50 was > 80 µM (inactive). `CCn1c2ccccc2c2cc(NC(=O)c3cc(OC)c(OC)c(OC)c3)ccc21`: the pIC50 was 5.40.

In the case of `COc1ccc(NC(=O)/C(Cl)=C(/Cl)S(=O)Cc2ccccc2)cn1` (stereo not given), the negative-log IC50 (pIC50) is 5.06. For the molecule `C#Cc1ccc([C@@H]2C=C(C(=O)N3CCN(Cc4ccccc4)CC3)O[C@H](OCCCCO)C2)cc1`, the pIC50 is 5.63. Same read-out and setting: then `CC(=O)Nc1ccc(S(=O)(=O)N2c3ccccc3C(C)=CC2(C)C)cc1`, with 5.32. With `O=C1c2c(O)ccc(O)c2C(=O)c2c(NCCNCCO)ccc(NCCNCCO)c21`, the pIC50 was 4.97. `c1ccc(-c2cccc(-c3ccccn3)n2)nc1`: the IC50 was > 80 µM (inactive). As for `CSC1=NC(C(Cl)(Cl)Cl)N=C(c2ccc(C)cc2)N1` (stereo not given), the pIC50 is 4.90. Regarding `CC(C)(C)C(=O)Nc1ccc(NC(=O)c2ccco2)nc1`, the pIC50 is 6.57. Still for that read-out and setting: then `COC(=O)c1[nH]c2ccc(F)cc2c1NS(=O)(=O)c1ccc(OC)cc1`, with 4.93. On to `C[C@@H]1C=CC(=O)O[C@@H]1c1ccc(Cl)cc1`, for which the IC50 is 34 µM (inactive). `COC(=O)c1[nH]c2c(c1C)C(=O)CC(c1cccs1)C2` (stereo not given): the pIC50 is 5.72. The same measure, in the same setting: the same measure for `C[C@@H]1O[C@@H](O[C@H]2C[C@@H](O)[C@]3(CO)[C@@H]4C(CC[C@]3(O)C2)[C@@]2(O)CC[C@H](C3COC(=O)C3)[C@@]2(C)C[C@H]4O)[C@H](O)[C@H](O)[C@H]1O` (stereo not given in full): 6.16; for `CC1Cc2cc(-c3csc(NC(=O)Cc4cccs4)n3)ccc2N1S(C)(=O)=O` (stereo not given): 5.70. For `Cc1ccc(/C=N/NC(=O)c2c(C)nc3ccc(Br)cn23)cc1`, the IC50 was > 80 µM (inactive). Take `CCN(CC)c1ccc(-c2nn3c(-c4n[nH]c5c4CCC5)nnc3s2)cc1`: the negative-log IC50 (pIC50) was 5.67. As for `O=C(Nc1ccc(N2CCOCC2)cc1)c1ccc(Cl)c(S(=O)(=O)N2CCCCC2)c1`, the pIC50 was 5.94. The same measure, in the same setting: then `CCO[C@@H]1OC(C(=O)NCc2nc3ccccc3[nH]2)=C[C@H](C(C)(C)C)[C@H]1CCCO`, with 5.86; and `O=C(Nc1ccc(N2CCCCC2)cc1)c1ccccn1`, with 5.49.

For `CCc1cc(C(=O)NC2CCCc3c2cnn3-c2cccc(C)c2C)n(C)n1` (stereo not given), the pIC50 was > 6.80. Same read-out and setting: the same measure for `CC(C)c1oc(=O)cc2c1[C@@H](O)[C@H]1OC(=O)[C@@]3(C)CC[C@@H](O)[C@@]2(C)C13` (stereo not given in full): 5.34; for `COc1ccc(Nc2ncnc3ccc(Br)cc23)c(OC)c1`: 4.92; for `COc1cc(/C=C2/SC(=Nc3ccc(O)cc3)NC2=O)ccc1O`: 5.45.

With `COc1ccc(S(=O)(=O)Nc2cccc(-c3ccc4nncn4n3)c2)cc1F`, the IC50 is 49.2 µM (inactive).

As to `CCN(c1ccccc1)S(=O)(=O)c1ccc(C(=O)NC2CCN(Cc3ccccc3)CC2)cc1`, the pIC50 was 5.50. Same read-out and setting: the same measure for `COc1cc(-c2noc(C)c2C#Cc2ccsc2)cc(OC)c1OC`: 5.39; for `O=C(COc1ccccc1-c1ccccc1)N/N=C/c1cccc2ccccc12`: 5.10. In the case of `CC(C)(C)c1nnc(N/N=C/c2ccccc2O)n(N)c1=O`, the IC50 is 28 µM (inactive). Same read-out and setting: then `CCOC(=O)c1[nH]c2c(c1C)C(=O)CC(c1ccc(F)cc1)C2` (stereo not given), with > 80 µM (inactive). Regarding `CN(Cc1ccccc1)C1=CC(=[N+]2CCCC2)CC(C)(C)C1`, the pIC50 was 5.79. For `CCc1ccc(/C=N/NC(=O)c2cc(C3CC3)nc3ccccc23)s1`, the negative logarithm of the IC50 (pIC50) was 4.99.

For the origin of these results see PubChem BioAssay AID489041 (Sanford-Burnham Center for Chemical Genomics, 2010).
